Key:
[1] = molecular target: Heat shock cognate 71 kDa protein (Homo sapiens) (UniProt P11142); note: assay method not described here
[2] = molecular target: Ribonuclease H1 (Homo sapiens) (UniProt O60930); note: assay method not described here
[3] = molecular target: DNA replication licensing factor MCM7 (Homo sapiens) (UniProt P33993); note: assay method not described here
[4] = molecular target: Serine/threonine-protein kinase ULK1 (Homo sapiens) (UniProt O75385); note: assay method not described here
[5] = molecular target: Ceramide synthase 2 (Homo sapiens) (UniProt Q96G23); note: assay method not described here
[6] = molecular target: High affinity nerve growth factor receptor (Homo sapiens) (UniProt P04629); note: assay method not described here
[7] = molecular target: Non-receptor tyrosine-protein kinase TNK1 (Homo sapiens) (UniProt Q13470); note: assay method not described here
[8] = molecular target: Exocyst complex component 4 (Homo sapiens) (UniProt Q96A65); note: assay method not described here
[9] = molecular target: Ataxin-2-like protein (Homo sapiens) (UniProt Q8WWM7); note: assay method not described here
[10] = molecular target: Probable ATP-dependent RNA helicase DDX20 (Homo sapiens) (UniProt Q9UHI6); note: assay method not described here
[11] = molecular target: Kinetochore-associated protein 1 (Homo sapiens) (UniProt P50748); note: assay method not described here
[12] = molecular target: Small ribosomal subunit protein uS5 (Homo sapiens) (UniProt P15880); note: assay method not described here
[13] = molecular target: Protein Aster-A (Homo sapiens) (UniProt Q96CP6); note: assay method not described here
[14] = molecular target: Cytochrome c oxidase subunit 6C (Homo sapiens) (UniProt P09669); note: assay method not described here
[15] = molecular target: Non-POU domain-containing octamer-binding protein (Homo sapiens) (UniProt Q15233); note: assay method not described here
[16] = molecular target: Ubiquitin carboxyl-terminal hydrolase 7 (Homo sapiens) (UniProt Q93009); note: assay method not described here
[17] = molecular target: Transport and Golgi organization protein 1 homolog (Homo sapiens) (UniProt Q5JRA6); note: assay method not described here
[18] = molecular target: Serine/threonine-protein kinase PAK 2 (Homo sapiens) (UniProt Q13177); note: assay method not described here
[19] = molecular target: Monocarboxylate transporter 4 (Homo sapiens) (UniProt O15427); note: assay method not described here
[20] = molecular target: Casein kinase I isoform epsilon (Homo sapiens) (UniProt P49674); note: assay method not described here
[21] = molecular target: Importin subunit beta-1 (Homo sapiens) (UniProt Q14974); note: assay method not described here
[22] = molecular target: Ras-related protein Rab-8A (Homo sapiens) (UniProt P61006); note: assay method not described here
[23] = molecular target: 2,4-dienoyl-CoA reductase [(3E)-enoyl-CoA-producing], mitochondrial (Homo sapiens) (UniProt Q16698); note: assay method not described here
[24] = organism: Homo sapiens; note: assay method not described here
[25] = molecular target: Conserved oligomeric Golgi complex subunit 8 (Homo sapiens) (UniProt Q96MW5); note: assay method not described here
[26] = molecular target: ATP synthase F(1) complex subunit delta, mitochondrial (Homo sapiens) (UniProt P30049); note: assay method not described here
[27] = molecular target: Galectin-3-binding protein (Homo sapiens) (UniProt Q08380); note: assay method not described here
[28] = molecular target: Ephrin type-B receptor 3 (Homo sapiens, UniProt P54753); assay: Inhibition of Nano Luc-fused full length C-terminal EPHB3 (unknown origin) expressed in HEK293T cells using NanoGlo as substrate incubated for 2 hrs in presence of tracer by NanoBRET assay; type: cell-based
[29] = molecular target: Heat shock protein HSP 90-alpha (Homo sapiens) (UniProt P07900); note: assay method not described here
[30] = molecular target: Large ribosomal subunit protein uL5 (Homo sapiens) (UniProt P62913); note: assay method not described here
[31] = molecular target: Spliceosome RNA helicase DDX39B (Homo sapiens) (UniProt Q13838); note: assay method not described here
[32] = molecular target: Programmed cell death protein 6 (Homo sapiens) (UniProt O75340); note: assay method not described here
[33] = molecular target: Chloride intracellular channel protein 1 (Homo sapiens) (UniProt O00299); note: assay method not described here
[34] = molecular target: V-type proton ATPase subunit H (Homo sapiens) (UniProt Q9UI12); note: assay method not described here
[35] = molecular target: Signal peptidase complex subunit 2 (Homo sapiens) (UniProt Q15005); note: assay method not described here
[36] = molecular target: Zinc finger CCCH-type antiviral protein 1 (Homo sapiens) (UniProt Q7Z2W4); note: assay method not described here
[37] = molecular target: Small ribosomal subunit protein uS13 (Homo sapiens) (UniProt P62269); note: assay method not described here
[38] = molecular target: Small ribosomal subunit protein eS12 (Homo sapiens) (UniProt P25398); note: assay method not described here
[39] = molecular target: Cytoplasmic dynein 1 light intermediate chain 1 (Homo sapiens) (UniProt Q9Y6G9); note: assay method not described here
[40] = molecular target: Far upstream element-binding protein 2 (Homo sapiens) (UniProt Q92945); note: assay method not described here
[41] = molecular target: Ephrin type-B receptor 2 (Homo sapiens) (UniProt P29323); note: assay method not described here
[42] = molecular target: Lon protease homolog, mitochondrial (Homo sapiens) (UniProt P36776); note: assay method not described here
[43] = molecular target: Ephrin type-A receptor 3 (Homo sapiens, UniProt P29320); assay: Inhibition of Nano Luc-fused full length C-terminal EPHA3 (unknown origin) expressed in HEK293T cells using NanoGlo as substrate incubated for 2 hrs in presence of tracer by NanoBRET assay; type: cell-based
[44] = molecular target: Ubiquitin-associated protein 2-like (Homo sapiens) (UniProt Q14157); note: assay method not described here
[45] = molecular target: Protein SGT1 homolog (Homo sapiens) (UniProt Q9Y2Z0); note: assay method not described here

Non-POU domain-containing octamer-binding protein (Homo sapiens), sequence (Q15233 whole entry, the tested form may be a part): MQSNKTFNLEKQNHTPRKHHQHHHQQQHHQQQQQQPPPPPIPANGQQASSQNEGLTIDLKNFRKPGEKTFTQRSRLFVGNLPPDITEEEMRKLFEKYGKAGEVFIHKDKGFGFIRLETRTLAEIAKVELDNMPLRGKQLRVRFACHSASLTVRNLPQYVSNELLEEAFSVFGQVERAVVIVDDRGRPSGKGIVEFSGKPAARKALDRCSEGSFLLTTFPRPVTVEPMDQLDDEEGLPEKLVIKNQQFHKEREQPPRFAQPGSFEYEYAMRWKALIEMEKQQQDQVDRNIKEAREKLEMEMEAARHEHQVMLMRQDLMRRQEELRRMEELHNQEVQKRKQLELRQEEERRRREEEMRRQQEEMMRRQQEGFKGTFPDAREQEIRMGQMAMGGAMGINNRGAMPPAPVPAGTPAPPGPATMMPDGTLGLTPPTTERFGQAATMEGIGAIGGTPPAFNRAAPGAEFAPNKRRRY
Heat shock cognate 71 kDa protein (Homo sapiens), sequence (P11142 2-646 limits assumed): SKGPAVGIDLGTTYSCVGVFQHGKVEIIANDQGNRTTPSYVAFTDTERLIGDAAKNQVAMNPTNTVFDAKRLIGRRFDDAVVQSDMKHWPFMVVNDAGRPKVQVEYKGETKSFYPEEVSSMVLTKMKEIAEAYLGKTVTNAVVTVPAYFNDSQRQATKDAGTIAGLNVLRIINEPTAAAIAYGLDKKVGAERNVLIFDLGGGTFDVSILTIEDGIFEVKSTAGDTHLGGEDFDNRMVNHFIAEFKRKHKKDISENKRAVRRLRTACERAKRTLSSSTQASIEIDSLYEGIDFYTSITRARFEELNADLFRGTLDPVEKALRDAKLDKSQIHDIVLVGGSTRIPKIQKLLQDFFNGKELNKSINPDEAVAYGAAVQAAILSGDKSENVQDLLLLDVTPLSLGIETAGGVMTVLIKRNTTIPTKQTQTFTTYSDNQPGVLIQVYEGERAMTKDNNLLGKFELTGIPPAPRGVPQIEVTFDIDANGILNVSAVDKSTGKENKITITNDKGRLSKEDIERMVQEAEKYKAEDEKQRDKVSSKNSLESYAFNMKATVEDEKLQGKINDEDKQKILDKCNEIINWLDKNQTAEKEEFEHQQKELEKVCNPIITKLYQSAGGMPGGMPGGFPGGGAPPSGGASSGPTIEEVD
Ribonuclease H1 (Homo sapiens), sequence (O60930 whole entry): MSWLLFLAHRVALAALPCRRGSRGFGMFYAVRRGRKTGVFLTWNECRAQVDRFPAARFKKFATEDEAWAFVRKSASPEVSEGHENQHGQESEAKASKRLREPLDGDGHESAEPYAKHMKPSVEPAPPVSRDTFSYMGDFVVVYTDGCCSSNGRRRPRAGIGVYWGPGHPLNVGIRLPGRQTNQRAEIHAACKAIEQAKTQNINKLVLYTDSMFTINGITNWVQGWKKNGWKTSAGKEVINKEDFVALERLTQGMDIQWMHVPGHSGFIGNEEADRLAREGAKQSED
Importin subunit beta-1 (Homo sapiens), sequence (Q14974 whole entry): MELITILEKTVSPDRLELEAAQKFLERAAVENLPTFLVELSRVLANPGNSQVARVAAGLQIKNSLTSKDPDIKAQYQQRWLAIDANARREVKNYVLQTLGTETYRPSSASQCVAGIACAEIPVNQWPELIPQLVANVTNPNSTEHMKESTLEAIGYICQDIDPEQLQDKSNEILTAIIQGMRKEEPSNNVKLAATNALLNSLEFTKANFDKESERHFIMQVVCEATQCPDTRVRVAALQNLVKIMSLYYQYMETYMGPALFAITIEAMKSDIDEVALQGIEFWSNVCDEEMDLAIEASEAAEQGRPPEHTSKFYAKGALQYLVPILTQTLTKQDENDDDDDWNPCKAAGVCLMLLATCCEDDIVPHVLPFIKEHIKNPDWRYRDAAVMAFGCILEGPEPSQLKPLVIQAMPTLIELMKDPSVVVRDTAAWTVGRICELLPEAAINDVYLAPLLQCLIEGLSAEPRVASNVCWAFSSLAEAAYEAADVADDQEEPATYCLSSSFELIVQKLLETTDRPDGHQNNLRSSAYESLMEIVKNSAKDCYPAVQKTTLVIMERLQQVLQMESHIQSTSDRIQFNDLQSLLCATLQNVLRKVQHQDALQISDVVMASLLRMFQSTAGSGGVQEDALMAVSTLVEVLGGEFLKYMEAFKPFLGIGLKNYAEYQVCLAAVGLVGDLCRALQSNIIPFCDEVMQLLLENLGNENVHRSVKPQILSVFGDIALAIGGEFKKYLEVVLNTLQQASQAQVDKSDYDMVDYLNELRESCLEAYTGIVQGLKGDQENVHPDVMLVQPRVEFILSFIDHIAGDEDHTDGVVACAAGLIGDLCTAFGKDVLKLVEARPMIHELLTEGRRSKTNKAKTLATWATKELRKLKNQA
2,4-dienoyl-CoA reductase [(3E)-enoyl-CoA-producing], mitochondrial (Homo sapiens), sequence (Q16698 whole entry): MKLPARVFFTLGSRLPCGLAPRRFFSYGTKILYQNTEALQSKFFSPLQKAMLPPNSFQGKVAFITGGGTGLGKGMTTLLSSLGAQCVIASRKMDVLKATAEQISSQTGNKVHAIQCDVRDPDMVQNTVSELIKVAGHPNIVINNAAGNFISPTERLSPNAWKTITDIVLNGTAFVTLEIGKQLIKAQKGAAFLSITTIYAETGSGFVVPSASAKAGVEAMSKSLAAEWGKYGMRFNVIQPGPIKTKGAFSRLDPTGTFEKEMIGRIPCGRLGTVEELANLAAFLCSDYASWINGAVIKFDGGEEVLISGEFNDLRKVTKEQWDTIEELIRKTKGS
Ras-related protein Rab-8A (Homo sapiens), sequence (P61006 whole entry): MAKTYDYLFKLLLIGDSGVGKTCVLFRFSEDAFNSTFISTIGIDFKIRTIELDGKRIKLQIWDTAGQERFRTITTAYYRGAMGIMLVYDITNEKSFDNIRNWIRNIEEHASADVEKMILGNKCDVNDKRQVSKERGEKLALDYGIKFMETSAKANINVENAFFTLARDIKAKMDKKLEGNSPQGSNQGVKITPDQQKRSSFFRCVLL
Ephrin type-B receptor 3, sequence (P54753 whole entry, the tested form may be a part): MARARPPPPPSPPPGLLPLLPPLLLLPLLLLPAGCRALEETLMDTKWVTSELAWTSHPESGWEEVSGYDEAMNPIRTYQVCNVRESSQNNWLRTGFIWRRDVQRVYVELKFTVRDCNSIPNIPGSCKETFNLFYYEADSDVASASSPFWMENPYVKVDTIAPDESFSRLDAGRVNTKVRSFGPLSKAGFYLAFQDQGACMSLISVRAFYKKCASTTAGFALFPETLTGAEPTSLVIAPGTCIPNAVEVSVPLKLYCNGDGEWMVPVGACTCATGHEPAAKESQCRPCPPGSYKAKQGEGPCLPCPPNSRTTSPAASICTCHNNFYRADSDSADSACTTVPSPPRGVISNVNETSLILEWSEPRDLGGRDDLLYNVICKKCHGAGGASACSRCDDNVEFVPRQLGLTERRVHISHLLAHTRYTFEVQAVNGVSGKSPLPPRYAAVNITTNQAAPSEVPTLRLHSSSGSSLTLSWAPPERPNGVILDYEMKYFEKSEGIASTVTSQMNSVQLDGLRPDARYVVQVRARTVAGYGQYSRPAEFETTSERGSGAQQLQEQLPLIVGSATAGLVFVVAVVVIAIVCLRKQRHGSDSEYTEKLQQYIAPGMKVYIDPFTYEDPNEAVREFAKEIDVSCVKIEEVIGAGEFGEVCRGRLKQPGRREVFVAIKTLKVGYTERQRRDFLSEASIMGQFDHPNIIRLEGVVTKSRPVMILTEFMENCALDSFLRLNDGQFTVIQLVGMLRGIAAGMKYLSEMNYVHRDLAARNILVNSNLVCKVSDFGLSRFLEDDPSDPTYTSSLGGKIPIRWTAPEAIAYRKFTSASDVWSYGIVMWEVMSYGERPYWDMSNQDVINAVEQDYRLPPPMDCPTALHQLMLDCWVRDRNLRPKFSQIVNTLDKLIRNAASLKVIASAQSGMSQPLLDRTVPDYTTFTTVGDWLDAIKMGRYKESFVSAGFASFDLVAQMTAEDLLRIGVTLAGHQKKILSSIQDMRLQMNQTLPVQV
Ephrin type-B receptor 2 (Homo sapiens), sequence (P29323 whole entry): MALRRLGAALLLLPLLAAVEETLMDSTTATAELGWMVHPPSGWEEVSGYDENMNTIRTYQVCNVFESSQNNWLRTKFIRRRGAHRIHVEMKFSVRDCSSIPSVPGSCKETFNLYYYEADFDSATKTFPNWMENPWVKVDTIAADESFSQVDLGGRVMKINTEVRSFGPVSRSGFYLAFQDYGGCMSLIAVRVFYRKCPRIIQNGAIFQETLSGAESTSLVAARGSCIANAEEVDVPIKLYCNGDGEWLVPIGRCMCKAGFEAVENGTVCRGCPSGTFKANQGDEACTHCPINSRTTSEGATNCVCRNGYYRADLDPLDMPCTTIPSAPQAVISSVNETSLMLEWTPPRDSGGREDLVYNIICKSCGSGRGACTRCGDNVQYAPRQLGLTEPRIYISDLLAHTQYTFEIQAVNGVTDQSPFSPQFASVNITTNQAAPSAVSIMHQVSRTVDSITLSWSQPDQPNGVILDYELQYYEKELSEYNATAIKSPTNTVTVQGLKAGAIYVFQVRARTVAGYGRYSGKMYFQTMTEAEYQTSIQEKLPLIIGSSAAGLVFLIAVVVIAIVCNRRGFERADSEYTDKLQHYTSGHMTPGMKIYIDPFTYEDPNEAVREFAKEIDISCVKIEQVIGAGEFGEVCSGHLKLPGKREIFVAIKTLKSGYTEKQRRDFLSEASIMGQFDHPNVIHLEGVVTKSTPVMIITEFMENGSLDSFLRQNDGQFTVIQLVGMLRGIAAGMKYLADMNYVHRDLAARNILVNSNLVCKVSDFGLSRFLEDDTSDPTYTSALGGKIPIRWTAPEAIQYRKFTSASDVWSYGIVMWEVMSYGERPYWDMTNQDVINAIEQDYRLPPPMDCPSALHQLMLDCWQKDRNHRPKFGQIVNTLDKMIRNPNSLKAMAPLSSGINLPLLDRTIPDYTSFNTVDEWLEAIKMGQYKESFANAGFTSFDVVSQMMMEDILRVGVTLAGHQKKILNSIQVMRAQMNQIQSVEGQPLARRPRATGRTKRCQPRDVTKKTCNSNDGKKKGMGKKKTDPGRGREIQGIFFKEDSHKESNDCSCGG
Cytochrome c oxidase subunit 6C (Homo sapiens), sequence (P09669 whole entry, the tested form may be a part): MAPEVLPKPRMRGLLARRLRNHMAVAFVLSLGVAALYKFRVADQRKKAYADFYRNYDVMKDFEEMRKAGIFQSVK

## Cc1ccc(C(=O)Nc2cccc(C(F)(F)F)c2)cc1Nc1nc(-c2cccnc2)nc2c1cnn2C
[1]
  ED50: 121 nM
[2]
  ED50: 12.7 µM
[3]
  ED50: 5.39 µM
[4]
  ED50: 3600 nM
[5]
  ED50: 68.3 nM
[6]
  ED50: 16.9 nM
[7]
  ED50: 18.8 µM
[8]
  ED50: 11.4 µM
[9]
  ED50: 3.43 µM
[10]
  ED50: 616 nM
[11]
  ED50: 14 µM
[12]
  ED50: 80.4 nM
[13]
  ED50: 29.6 µM
[14]
  ED50: 16.2 µM
[15]
  ED50: 3170 nM
[16]
  ED50: 6.16 nM
[17]
  ED50: 3.64 µM
[18]
  ED50: 19.6 µM
[19]
  ED50: 4.22 µM
[20]
  ED50: 4260 nM
[21]
  ED50: 3710 nM
[22]
  ED50: 0.0233 mM
[23]
  ED50: 3.63 µM
[24]
  ED50: 7.04 µM
[25]
  ED50: 4.17 nM
[26]
  ED50: 146 µM
[27]
  ED50: 9.93 µM
[28]
  IC50: 6 nM
[29]
  ED50: 0.173 µM
[30]
  ED50: 39.5 nM
[31]
  ED50: 18.4 µM
[32]
  ED50: 1360 nM
[33]
  ED50: 14.3 µM
[34]
  ED50: 1.75 nM
[35]
  ED50: 916 nM
[36]
  ED50: 13.3 µM
[37]
  ED50: 2790 nM
[38]
  ED50: 171 nM
[39]
  ED50: 24.4 nM
[40]
  ED50: 1030 nM
[41]
  ED50: 2.94 µM
[42]
  ED50: 575 nM
[43]
  IC50: 0.3 nM
[44]
  ED50: 13.3 µM
[45]
  ED50: 17.2 µM

## Cc1ccc(C(=O)Nc2cccc(C(F)(F)F)c2)cc1Nc1nc(-c2cccnc2)nc2nn(C)cc12
[1]
  ED50: 1760 nM
[2]
  ED50: 385 µM
[3]
  ED50: 50.3 µM
[4]
  ED50: 550 nM
[5]
  ED50: 3600 nM
[6]
  ED50: 773 nM
[7]
  ED50: 0.064 µM
[8]
  ED50: 0.0488 µM
[9]
  ED50: 10.3 µM
[10]
  ED50: 28.5 nM
[11]
  ED50: 0.0543 µM
[12]
  ED50: 1830 nM
[13]
  ED50: 0.495 µM
[14]
  ED50: 0.012 µM
[15]
  ED50: 51.7 nM
[16]
  ED50: 49 nM
[17]
  ED50: 120 µM
[18]
  ED50: 42.5 µM
[19]
  ED50: 2.74 µM
[20]
  ED50: 4.08 nM
[21]
  ED50: 53.4 nM
[22]
  ED50: 3.69 mM
[23]
  ED50: 10.5 µM
[24]
  ED50: 39.2 µM
[25]
  ED50: 819 nM
[26]
  ED50: 97.9 µM
[27]
  ED50: 0.0814 µM
[28]
  IC50: 191 nM
[29]
  ED50: 33.1 µM
[30]
  ED50: 1630 nM
[31]
  ED50: 0.957 µM
[32]
  ED50: 1040 nM
[33]
  ED50: 20.9 µM
[34]
  ED50: 2380 nM
[35]
  ED50: 2990 nM
[36]
  ED50: 0.0483 µM
[37]
  ED50: 6.91 nM
[38]
  ED50: 254 nM
[39]
  ED50: 897 nM
[40]
  ED50: 4030 nM
[41]
  ED50: 6.16 µM
[42]
  ED50: 64.4 nM
[43]
  IC50: 50 nM
[44]
  ED50: 14.3 µM
[45]
  ED50: 4.08 µM

— ChEMBL document CHEMBL5649169 (ChemMedChem, 2018)
